Reference: the NIST ThermoML archive (doi:10.1021/acs.jced.9b00311)
Numbers after ± are expanded uncertainties.

Assays:
[1] = Liquid; for mass density: Vibrating tube method; for speed of sound: Frequency=3 MHz, Pulse-echo method
[2] = xn = mol fraction of the nth substance listed; settings: Liquid, Vibrating tube method, x1 = 1

O=C=O [carbon dioxide]
mass density ([1]; 303.15 K, 10000 kPa): 770.5 ± 1.8 kg/m3
mass density ([1]; 303.15 K, 20000 kPa): 890.1 ± 0.5 kg/m3
mass density ([1]; 303.15 K, 30000 kPa): 949.2 ± 0.5 kg/m3
mass density ([1]; 303.15 K, 40000 kPa): 989.1 ± 0.5 kg/m3
mass density ([1]; 303.15 K, 50000 kPa): 1020 ± 0.5 kg/m3
mass density ([1]; 303.15 K, 60000 kPa): 1045.8 ± 0.5 kg/m3
mass density ([1]; 303.15 K, 70000 kPa): 1068 ± 0.5 kg/m3
mass density ([1]; 313.15 K, 10000 kPa): 628.9 ± 1.9 kg/m3
mass density ([1]; 313.15 K, 20000 kPa): 839.3 ± 1.1 kg/m3
mass density ([1]; 313.15 K, 30000 kPa): 909.2 ± 0.6 kg/m3
mass density ([1]; 313.15 K, 40000 kPa): 955.5 ± 0.6 kg/m3
mass density ([1]; 313.15 K, 50000 kPa): 990.5 ± 0.5 kg/m3
mass density ([1]; 313.15 K, 60000 kPa): 1019 ± 0.5 kg/m3
mass density ([1]; 313.15 K, 70000 kPa): 1043.5 ± 0.5 kg/m3

O=C=O [carbon dioxide] + CCCCCCCCCCCC
mass density ([2]; 303.15 K, 10000 kPa): 770.5 ± 1.8 kg/m3
mass density ([2]; 303.15 K, 20000 kPa): 890.1 ± 0.5 kg/m3
mass density ([2]; 303.15 K, 30000 kPa): 949.2 ± 0.5 kg/m3
mass density ([2]; 303.15 K, 40000 kPa): 989.1 ± 0.5 kg/m3
mass density ([2]; 303.15 K, 50000 kPa): 1020 ± 0.5 kg/m3
mass density ([2]; 303.15 K, 60000 kPa): 1045.8 ± 0.5 kg/m3
mass density ([2]; 303.15 K, 70000 kPa): 1068 ± 0.5 kg/m3
mass density ([2]; 313.15 K, 10000 kPa): 628.9 ± 1.9 kg/m3
mass density ([2]; 313.15 K, 20000 kPa): 839.3 ± 1.1 kg/m3
mass density ([2]; 313.15 K, 30000 kPa): 909.2 ± 0.6 kg/m3
mass density ([2]; 313.15 K, 40000 kPa): 955.5 ± 0.6 kg/m3
mass density ([2]; 313.15 K, 50000 kPa): 990.5 ± 0.5 kg/m3
mass density ([2]; 313.15 K, 60000 kPa): 1019 ± 0.5 kg/m3
mass density ([2]; 313.15 K, 70000 kPa): 1043.5 ± 0.5 kg/m3

CCCCCCCCCCCC [dodecane]
speed of sound ([1]; 303.15 K, 10000 kPa): 1318.5 ± 1.8 m/s
mass density ([1]; 303.15 K, 10000 kPa): 748.5 ± 0.8 kg/m3
speed of sound ([1]; 303.15 K, 20000 kPa): 1372.4 ± 1.8 m/s
mass density ([1]; 303.15 K, 20000 kPa): 755.1 ± 0.9 kg/m3
speed of sound ([1]; 303.15 K, 30000 kPa): 1421.4 ± 1.8 m/s
mass density ([1]; 303.15 K, 30000 kPa): 761.3 ± 1 kg/m3
speed of sound ([1]; 303.15 K, 40000 kPa): 1468.5 ± 1.9 m/s
mass density ([1]; 303.15 K, 40000 kPa): 766.9 ± 1 kg/m3
speed of sound ([1]; 303.15 K, 50000 kPa): 1512.3 ± 1.9 m/s
mass density ([1]; 303.15 K, 50000 kPa): 772 ± 1 kg/m3
speed of sound ([1]; 303.15 K, 60000 kPa): 1553.7 ± 1.9 m/s
mass density ([1]; 303.15 K, 60000 kPa): 776.8 ± 1.1 kg/m3
speed of sound ([1]; 303.15 K, 70000 kPa): 1593.3 ± 2 m/s
mass density ([1]; 303.15 K, 70000 kPa): 781.4 ± 1.1 kg/m3
speed of sound ([1]; 313.15 K, 10000 kPa): 1281.7 ± 1.8 m/s
mass density ([1]; 313.15 K, 10000 kPa): 741.6 ± 0.8 kg/m3
speed of sound ([1]; 313.15 K, 20000 kPa): 1337.9 ± 1.8 m/s
mass density ([1]; 313.15 K, 20000 kPa): 748.5 ± 0.9 kg/m3
speed of sound ([1]; 313.15 K, 30000 kPa): 1389.6 ± 1.8 m/s
mass density ([1]; 313.15 K, 30000 kPa): 754.8 ± 0.9 kg/m3
speed of sound ([1]; 313.15 K, 40000 kPa): 1436.8 ± 1.8 m/s
mass density ([1]; 313.15 K, 40000 kPa): 760.8 ± 1 kg/m3
speed of sound ([1]; 313.15 K, 50000 kPa): 1481.5 ± 1.9 m/s
mass density ([1]; 313.15 K, 50000 kPa): 766.3 ± 1.1 kg/m3
speed of sound ([1]; 313.15 K, 60000 kPa): 1524.2 ± 1.9 m/s
mass density ([1]; 313.15 K, 60000 kPa): 771.5 ± 1.1 kg/m3
speed of sound ([1]; 313.15 K, 70000 kPa): 1564.6 ± 1.9 m/s
mass density ([1]; 313.15 K, 70000 kPa): 776.4 ± 1.1 kg/m3
